Experiments:
[1] = Aqueous solubility (24 hour equilibrated suspension in water, HPLC); assay type: physicochemical; conditions: for pH measured at saturation: saturated aqueous solution
Experimental: The aliquot was diluted and analyzed by HPLC (Waters). The data was compared to a standard curve generated from a set of solutions of known concentrations. The standard curve and the samples were analyzed using a HPLC using the following conditions: • Column: Symmetry C-18, 5 um, 15 cm×3.9 mm (Waters) • Mobile Phase: 0.05 M KH2PO4—0.01M Hexanesulfonic Acid/THF (1000:125) (Apparent pH 5.0) • Column Temp: 20-30° C. • Flow Rate: 1.0 mL/min • Wavelength: 305 nm • Run Time: 15 min (zopiclone retention time is 9.5-10 min)

[2] = Intrinsic dissolution, USP 28 method <1087>; assay type: physicochemical; conditions: isotonic 50 mM acetate (pH 4.5) buffer at 37° C., 50 rpm; for Intrinsic dissolution Average: average of Run 1 and Run 2
Experimental: The intrinsic dissolution (Table 3) was determined using USP 28 method <1087> (United States Pharmacopeia, The National Formulary, USP 28, 28th edition, Rockville, […]., 2005). Preparation of each test sample was performed as per USP 28 method <1087> by weighing and transferring the material to the die cavity and compressing for 1 minute at the minimum compression pressure necessary to form a nondisintegrating compacted pellet. The dissolution media used was isotonic 50 mM acetate buffer (pH 4.5) at 37° C. and speed was set at 50 rpm. Each run was halted at 5 min, irrespective of the percent dissolved. Each salt was run in duplicate.

[3] = water, equilibrated 24 hour at ambient

Row | SMILES | pH measured at saturation [1] | solubility thermodynamic at 24 h [1, 3] | Intrinsic dissolution Run 1 [2] | Intrinsic dissolution Run 2 [2] | Intrinsic dissolution Average [2] | Solubility [1, 3]
1 | CN1CCN(C(=O)O[C@H]2c3nccnc3C(=O)N2c2ccc(Cl)cn2)CC1.O=S(=O)(O)c1ccccc1 [Besylate, (S)-Zopiclone Besylate] | 4.4 | 34 mg/mL | 3.3 mgA/cm^2/min | 2.6 mgA/cm^2/min | 2.9 mgA/cm^2/min | –
2 | CN1CCN(C(=O)O[C@H]2c3nccnc3C(=O)N2c2ccc(Cl)cn2)CC1 [Free base, (S)-(6-(5-chloro-2-pyridyl)-5-[(4-methyl-1-piperazinyl)carbonyloxy]-7-oxo-6,7-dihydro-5H-pyrrolo[3,4-b]pyrazine)] | 7.6 | – | 0.6 mgA/cm^2/min | 0.5 mgA/cm^2/min | 0.5 mgA/cm^2/min | 0.2^1 mgA/mL

From patent US8497267B2, “Method for treating a sleep disorder with a dosage form of besylate salts of zopiclone or eszopiclone” (Sunovion Pharmaceuticals Inc., priority 2007, dated 2013)
